Source: PMC6044785 (ACS Omega, 2017)
Like-named read-outs stand apart in the source and are kept apart here. Square brackets hold non-standard residues; d marks the D form. Peptide text beside a SMILES is read from it. Gly(But-3-enyl) = C=CCC[C@H](N)C(=O)O; Aib = CC(C)(N)C(=O)O

Key:
HDAC8 = target: T1, HDAC8 (Homo sapiens, UniProt Q9BY41); assay: HDAC8 enzymatic inhibition assay; assay type: biochemical
T1 sequence (Q9BY41 1-377): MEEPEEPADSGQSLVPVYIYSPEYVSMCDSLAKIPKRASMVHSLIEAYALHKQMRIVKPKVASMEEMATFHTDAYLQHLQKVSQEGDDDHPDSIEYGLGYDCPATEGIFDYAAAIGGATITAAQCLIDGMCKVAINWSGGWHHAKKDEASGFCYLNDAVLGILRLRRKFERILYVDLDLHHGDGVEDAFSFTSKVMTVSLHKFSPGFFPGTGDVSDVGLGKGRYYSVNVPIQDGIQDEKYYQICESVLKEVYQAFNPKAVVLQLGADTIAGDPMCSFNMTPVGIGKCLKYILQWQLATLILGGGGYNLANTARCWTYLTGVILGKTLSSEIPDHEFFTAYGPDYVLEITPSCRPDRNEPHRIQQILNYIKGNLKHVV

K562 [1] = details: read-out: GI50 (μM) K562; Table 3; ref [22]; cited from earlier work
HDAC1 = HDAC1 (Homo sapiens, UniProt Q13547); assay: HDAC1 enzymatic inhibition assay; assay type: biochemical
HDAC1, sequence (Q13547 whole entry): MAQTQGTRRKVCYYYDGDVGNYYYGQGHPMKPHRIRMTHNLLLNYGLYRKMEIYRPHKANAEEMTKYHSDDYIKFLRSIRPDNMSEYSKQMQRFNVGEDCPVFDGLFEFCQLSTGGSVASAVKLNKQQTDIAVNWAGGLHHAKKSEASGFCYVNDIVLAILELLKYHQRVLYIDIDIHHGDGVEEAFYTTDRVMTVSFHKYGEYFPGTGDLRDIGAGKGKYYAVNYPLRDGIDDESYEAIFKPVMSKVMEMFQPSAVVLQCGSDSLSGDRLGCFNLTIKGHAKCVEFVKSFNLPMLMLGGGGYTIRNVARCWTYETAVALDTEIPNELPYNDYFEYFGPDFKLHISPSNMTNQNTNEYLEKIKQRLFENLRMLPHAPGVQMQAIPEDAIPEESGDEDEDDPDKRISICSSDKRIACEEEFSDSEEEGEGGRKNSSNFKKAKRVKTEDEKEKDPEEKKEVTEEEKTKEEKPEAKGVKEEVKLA

HEK293 = assay: Antiproliferative activity on HEK293 cells; assay type: cell-based, human; details: read-out: GI50 (μM) HEK293
Jurkat [2] = details: read-out: GI50 (μM) Jurkat; Table 3; ref [22]; cited from earlier work
HDAC3/NCOR2 = HDAC3/NCOR2 (Homo sapiens, UniProt O15379); assay: HDAC3/NCOR2 enzymatic inhibition assay; assay type: biochemical
HDAC3/NCOR2, sequence (O15379 whole entry): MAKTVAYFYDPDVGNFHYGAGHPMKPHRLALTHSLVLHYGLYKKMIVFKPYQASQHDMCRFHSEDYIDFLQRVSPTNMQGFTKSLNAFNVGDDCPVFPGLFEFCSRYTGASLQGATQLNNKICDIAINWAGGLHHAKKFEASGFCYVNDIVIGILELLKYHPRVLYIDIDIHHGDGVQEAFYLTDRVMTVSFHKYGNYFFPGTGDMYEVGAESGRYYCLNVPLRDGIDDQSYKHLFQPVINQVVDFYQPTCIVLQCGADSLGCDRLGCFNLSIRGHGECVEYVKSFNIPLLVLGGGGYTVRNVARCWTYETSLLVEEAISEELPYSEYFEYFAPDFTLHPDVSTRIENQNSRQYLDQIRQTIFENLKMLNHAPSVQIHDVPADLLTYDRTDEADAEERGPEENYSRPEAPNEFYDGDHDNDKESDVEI
HDAC3/NCOR2, sequence (Q9Y618 395-489 partner limits assumed): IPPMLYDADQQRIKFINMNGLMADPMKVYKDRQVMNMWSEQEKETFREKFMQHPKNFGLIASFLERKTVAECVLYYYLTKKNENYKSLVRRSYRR

T. gondii RH strain = details: read-out: IC50 T. gondii RH strain; ref [22]; cited from earlier work
HeLa nuclear extract = assay: HDAC inhibition assay with HeLa nuclear extract; assay type: biochemical, human; details: read-out: IC50 (μM) HeLa nuclear extract; Table 1; mean ± SD of three independent experiments; >100 = not active (inhibition < 50% at 100 μM)
HDAC4 = HDAC4 (Homo sapiens, UniProt P56524); assay: HDAC4 enzymatic inhibition assay; assay type: biochemical
HDAC4, sequence (P56524 whole entry): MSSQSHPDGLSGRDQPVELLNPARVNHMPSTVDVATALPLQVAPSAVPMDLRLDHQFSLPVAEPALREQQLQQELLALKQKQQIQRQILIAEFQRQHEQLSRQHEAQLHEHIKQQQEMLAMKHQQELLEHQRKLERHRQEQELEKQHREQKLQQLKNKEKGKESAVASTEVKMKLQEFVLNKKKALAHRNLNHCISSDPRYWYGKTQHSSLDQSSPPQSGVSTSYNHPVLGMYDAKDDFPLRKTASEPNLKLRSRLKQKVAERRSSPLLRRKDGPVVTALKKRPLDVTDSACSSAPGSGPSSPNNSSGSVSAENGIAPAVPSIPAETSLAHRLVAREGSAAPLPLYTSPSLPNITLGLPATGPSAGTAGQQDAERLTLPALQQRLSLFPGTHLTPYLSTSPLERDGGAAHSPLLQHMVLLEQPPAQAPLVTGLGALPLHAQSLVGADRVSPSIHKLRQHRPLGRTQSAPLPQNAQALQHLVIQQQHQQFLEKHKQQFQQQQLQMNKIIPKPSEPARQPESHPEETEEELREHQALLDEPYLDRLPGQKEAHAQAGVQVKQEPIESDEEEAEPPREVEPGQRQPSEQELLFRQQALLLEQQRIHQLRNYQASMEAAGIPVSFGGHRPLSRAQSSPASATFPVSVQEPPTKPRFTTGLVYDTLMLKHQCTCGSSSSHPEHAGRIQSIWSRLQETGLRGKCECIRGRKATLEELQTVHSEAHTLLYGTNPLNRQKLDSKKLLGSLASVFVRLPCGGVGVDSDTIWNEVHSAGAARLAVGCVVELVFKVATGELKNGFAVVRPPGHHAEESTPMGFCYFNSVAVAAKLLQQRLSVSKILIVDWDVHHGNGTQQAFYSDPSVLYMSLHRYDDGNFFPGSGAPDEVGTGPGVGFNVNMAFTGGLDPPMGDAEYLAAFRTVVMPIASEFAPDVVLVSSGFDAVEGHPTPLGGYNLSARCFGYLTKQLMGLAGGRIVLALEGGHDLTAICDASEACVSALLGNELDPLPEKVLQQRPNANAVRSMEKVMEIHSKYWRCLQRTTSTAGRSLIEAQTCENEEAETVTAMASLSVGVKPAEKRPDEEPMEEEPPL

HDAC6 = target: T2, HDAC6 (Homo sapiens, UniProt Q9UBN7); assay: HDAC6 enzymatic inhibition assay; assay type: biochemical
T2 sequence (Q9UBN7 1-1215): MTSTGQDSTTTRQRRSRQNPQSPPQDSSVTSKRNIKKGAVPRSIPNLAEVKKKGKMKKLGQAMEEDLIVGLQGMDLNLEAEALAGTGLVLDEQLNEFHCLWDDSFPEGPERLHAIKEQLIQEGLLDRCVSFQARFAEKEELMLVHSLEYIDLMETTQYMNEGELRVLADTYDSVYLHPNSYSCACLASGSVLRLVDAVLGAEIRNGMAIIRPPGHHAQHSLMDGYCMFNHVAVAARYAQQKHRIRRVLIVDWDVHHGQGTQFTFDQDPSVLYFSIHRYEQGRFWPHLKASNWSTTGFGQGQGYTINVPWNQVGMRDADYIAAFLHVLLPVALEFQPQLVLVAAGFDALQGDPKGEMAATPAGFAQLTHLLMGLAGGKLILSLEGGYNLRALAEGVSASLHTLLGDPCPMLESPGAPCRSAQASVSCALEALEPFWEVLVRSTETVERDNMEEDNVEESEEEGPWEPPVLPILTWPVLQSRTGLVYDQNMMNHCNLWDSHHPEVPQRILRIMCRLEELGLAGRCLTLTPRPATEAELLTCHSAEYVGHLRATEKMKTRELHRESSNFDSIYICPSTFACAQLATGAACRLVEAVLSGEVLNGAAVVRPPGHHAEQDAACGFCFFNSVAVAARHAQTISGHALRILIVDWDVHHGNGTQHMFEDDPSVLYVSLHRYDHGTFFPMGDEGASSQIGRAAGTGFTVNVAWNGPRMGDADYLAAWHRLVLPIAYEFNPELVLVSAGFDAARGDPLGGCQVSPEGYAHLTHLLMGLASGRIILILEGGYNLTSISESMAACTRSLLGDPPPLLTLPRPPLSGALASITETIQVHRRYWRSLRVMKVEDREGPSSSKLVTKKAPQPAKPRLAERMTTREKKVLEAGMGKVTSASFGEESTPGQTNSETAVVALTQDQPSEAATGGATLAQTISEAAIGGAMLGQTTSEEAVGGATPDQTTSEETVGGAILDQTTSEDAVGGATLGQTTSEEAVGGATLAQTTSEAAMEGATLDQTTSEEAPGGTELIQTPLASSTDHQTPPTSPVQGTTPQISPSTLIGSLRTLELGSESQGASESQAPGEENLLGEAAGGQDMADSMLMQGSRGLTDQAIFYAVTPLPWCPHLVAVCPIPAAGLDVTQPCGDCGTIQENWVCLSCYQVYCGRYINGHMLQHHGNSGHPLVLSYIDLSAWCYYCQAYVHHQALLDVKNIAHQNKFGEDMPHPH

P. falciparum [3] = details: read-out: GI50 (μM) P. falciparum; Table 3; ref [22]; cited from earlier work
HeLa = assay: Antiproliferative activity on HeLa cells; assay type: cell-based, human; details: 72 h, read-out: GI50 (μM) HeLa
P. falciparum [4] = assay: P. falciparum [3H]-hypoxanthine incorporation assay; assay type: cell-based, Plasmodium falciparum 3D7 strain; details: Plasmodium falciparum, 3D7, read-out: GI50 (μM) P. falciparum
K562 [5] = assay: Antiproliferative activity on K562 cells; assay type: cell-based; details: Homo sapiens, K562, read-out: GI50 (μM) K562
Jurkat [6] = assay: Antiproliferative activity on Jurkat cells; assay type: cell-based; details: Homo sapiens, read-out: GI50 (μM) Jurkat
normal B lymphocytes = assay: Antiproliferative activity on normal B lymphocytes; assay type: cell-based; details: Homo sapiens, Lymphocyte, 72 h, read-out: GI50 normal B lymphocytes

Row | Compound | IC50 (HDAC8) [µM] | IC50 (HDAC1) [µM] | IC50 (HDAC3/NCOR2) [nM] | IC50 (HeLa nuclear extract) [µM] | IC50 (HDAC4) [µM] | IC50 (HDAC6) [µM] | GI50 (HeLa; Homo sapiens) [µM] | GI50 (K562 [5]) [µM] | GI50 (Jurkat [6]) [µM] | GI50 (HEK293; Homo sapiens, HEK293, 72 h) [µM] | GI50 (P. falciparum [4]) [µM] | further results
1 | C[C@@H](O)C(=O)CCCCC[C@@H]1NC(=O)[C@H]2CCCN2C(=O)[C@H](Cc2ccccc2)NC(=O)C(C)(C)NC1=O [Compound 3] | 7.02 ± 1.53 | 0.96 ± 0.6 | 330 ± 10 | 0.0081 ± 0.0019 | > 100 | > 300 | 0.17 ± 0.01 | – | – | 0.04 ± 0.02 | – | GI50 (K562 [1]): 0.018 ± 0.002 µM; GI50 (Jurkat [2]): 0.048 ± 0.001 µM; IC50 (T. gondii RH strain): 28.6 nM; GI50 (P. falciparum [3]): 0.0174 ± 0.002 µM
2 | C[C@@H](O)C(=O)CCCCCC(=O)Nc1ccccc1 [Compound 11a, (R)-8-Hydroxy-7-oxo-N-phenylnonanamide] | – | – | – | > 100 | – | 101 ± 2.9 | – | – | – | – | – | –
3 | C[C@@H](O)C(=O)CCCCCCC(=O)Nc1ccccc1 [Compound 11b, (R)-9-Hydroxy-8-oxo-N-phenyldecanamide] | > 100 | 7.9 ± 0.8 | 50200 ± 4700 | 8.9 ± 0.5 | > 100 | > 300 | > 50 | 62.3 ± 5.8 | 92 ± 1 | 35.6 ± 1.6 | 37.9 ± 3.8 | –
4 | C[C@@H](O)C(=O)CCCCCCCC(=O)Nc1ccccc1 [Compound 11c, (R)-10-Hydroxy-9-oxo-N-phenylundecanamide] | – | – | – | 27.3 ± 5.9 | – | > 300 | – | – | – | – | – | –
5 | CC(=O)O[C@H](C)C(=O)CCCCC[C@@H]1NC(=O)[C@H]2CCCN2C(=O)[C@H](Cc2ccccc2)NC(=O)C(C)(C)NC1=O [Compound 13] | 1.87 ± 0.42 | 0.39 ± 0.02 | 350 ± 3 | 0.11 ± 0.0008 | > 100 | > 300 | – | – | – | – | – | GI50 (K562 [1]): 0.061 ± 0.002 µM; GI50 (HEK293; Table 3, 72 h, XTT): 0.006 ± 0.001 µM; GI50 (Jurkat [2]): 0.127 ± 0.011 µM; GI50 (P. falciparum [3]): 0.0221 ± 0.001 µM; GI50 (HeLa; Table 3, XTT): 0.119 ± 0.008 µM

The next lines start with results.

Row | IC50 (HDAC8) [µM] | IC50 (HDAC1) [µM] | IC50 (HDAC3/NCOR2) [nM] | IC50 (HeLa nuclear extract) [µM] | IC50 (HDAC4) [µM] | IC50 (HDAC6) [µM] | GI50 (HeLa; Homo sapiens) [µM] | GI50 (K562 [5]) [µM] | GI50 (Jurkat [6]) [µM] | Compound | GI50 (HEK293; Homo sapiens, HEK293, 72 h) [µM] | GI50 (P. falciparum [4]) [µM] | further results
6 | > 100 | 5.04 ± 0.07 | 1970 ± 30 | 0.88 ± 0.05 | > 100 | > 300 | 115 ± 25.3 | 7.12 ± 0.9 | 2.84 ± 0.7 | C[C@H](O)C(=O)CCCCCCC(=O)Nc1cccc(-c2cn(-c3ccccc3)nn2)c1 [Compound 11e, (S)-9-Hydroxy-8-oxo-N-(3-(1-phenyl-1H-1,2,3-triazol-4-yl)phenyl)decanamide] | 15.9 ± 1.13 | 4.85 ± 1.3 | GI50 (normal B lymphocytes): > 50 µM
7 | – | – | – | 77.1 ± 6.4 | – | > 300 | – | – | – | C[C@H](O)C(=O)CCCCCCC(=O)Nc1ccccc1 [Compound 11f, (S)-9-Hydroxy-8-oxo-N-phenyldecanamide] | – | – | –
8 | – | – | – | > 100 | – | > 300 | – | – | – | CCC(=O)CCCCCCC(=O)Nc1ccccc1 [Compound 11g, 8-Oxo-N-phenyldecanamide] | – | – | –
9 | – | – | – | 63.8 ± 5.3 | – | > 300 | > 50 | ≥ 100 | ≥ 100 | CC(=O)O[C@H](C)C(=O)CCCCCCC(=O)Nc1ccccc1 [Compound 12b, (R)-3,10-Dioxo-10-(phenylamino)decan-2-yl Acetate] | 36.3 ± 1.7 | 40.1 ± 4.3 | –
10 | – | – | – | – | – | > 300 | – | – | – | C=CCC[C@@H]1NC(=O)[C@H]2CCCN2C(=O)[C@H](Cc2ccccc2)NC(=O)C(C)(C)NC1=O [Compound 14] (cyclo([Aib]F[dP][Gly(But-3-enyl)])) | – | – | –
